Our source for the Activity, viability and Time values is ChEMBL document CHEMBL4376842, “Synthesis and Biological Evaluation of Subglutinol Analogs for Immunomodulatory Agents” (J Med Chem, 2020).

The species entered for series [1] is Mus musculus. Kind of series: Immunosuppressive activity in OT2 mouse CD4-positive T cells derived OVA(323 to 339)-activated Th-differentiating media cultured Th1 cells assessed as reduction in pDBU/ionomycin-stimulated IFNgamma production up to 10 uM treated last 2 days of 5 days differentiation followed by pDBU/ionomycin stimulation on day 5 measured after 4 hrs by anti-mouse IFNgamma-Pacific Blue/IL-2-APC staining based flow cytometry. The class given is functional.

Series [2] is filed under the species Mus musculus. Briefly: Immunosuppressive activity in OT2 mouse CD4-positive T cells derived OVA(323 to 339)-activated Th-differentiating media cultured Th17 cells assessed as reduction in pDBU/ionomycin-stimulated […] production up to 10 uM treated last 2 days of 5 days differentiation followed by pDBU/ionomycin stimulation on day 5 measured after 4 hrs by anti-mouse IL17A-APC staining based flow cytometry. The class given is functional. For orientation: In flow cytometry, cells or beads pass a laser one at a time.

Series [3] has as its system Mus musculus. Kind of series: Immunosuppressive activity in MOG/CFA/Ptx-induced C57B/6 mouse model of experimental autoimmune encephalitis assessed as change in dendritic cell composition at 4 umol, ip administered on day 4 and 6 starting from 2 days post-disease induction and measured on day 7 post-last disease induction by immunostaining-based flow cytometry. It counts as functional, organism-based.

A short description of series [4]: Cytotoxicity against OT1 mouse CD8-positive T cells assessed as cell viability at 100 nM measured after 48 hrs by live/dead viability staining based flow cytometry (reference value: 39.5%). The note with it: read-out: Activity.
For series [5], the system named is Mus musculus. Kind of series: Immunosuppressive activity in MOG/CFA/Ptx-induced C57B/6 mouse model of experimental autoimmune encephalitis assessed as time of disease onset at 4 umol, ip administered on day 4, 6, and 8 starting from 2 days post-disease induction and measured daily up to 50 days. It counts as functional.
A short description of series [6]: Immunosuppressive activity in OT2 mouse CD4-positive T cells derived OVA(323 to 339)-activated Th-differentiating media cultured Th17 cells assessed as reduction in pDBU/ionomycin-stimulated 1L17A production by measuring IL17A level at 100 nM treated last 2 days of 5 days differentiation followed by pDBU/ionomycin stimulation on day 5 measured after 4 hrs by anti-mouse IL17A-APC staining based flow cytometry (reference value: 1.44%). The class given is functional. More on the design: scale not given: the % may be the effect or the level left.

In series [7] the test system is Mus musculus. Kind of series: Immunosuppressive activity in MOG/CFA/Ptx-induced C57B/6 mouse model of experimental autoimmune encephalitis assessed as granulocytic myeloid-derived suppressor cells at 4 umol, ip administered on day 4 and 6 starting from 2 days post-disease induction and measured on day 7 post-last disease induction by immunostaining-based flow cytometry (reference value: 28.1%). The class given is functional.

Series [8] concerns Mus musculus. Kind of series: Immunosuppressive activity in MOG/CFA/Ptx-induced C57B/6 mouse model of experimental autoimmune encephalitis assessed as decrease in clinical symptoms at 4 umol, ip administered on day 4, 6, and 8 starting from 2 days post-disease induction and measured daily up to 50 days. The class given is functional, organism-based.
Series [9] is described as follows: Cytotoxicity against OT1 mouse CD8-positive T cells assessed as cell viability at 10 uM measured after 48 hrs by live/dead viability staining based flow cytometry (reference value: 39.5%). The note with it: read-out: Activity.
The nature of series [10]: Immunosuppressive activity in OT2 mouse CD4-positive T cells derived OVA(323 to 339)-activated Th-differentiating media cultured Th17 cells assessed as reduction in pDBU/ionomycin-stimulated 1L17A production by measuring IL17A level at 10 uM treated last 2 days of 5 days differentiation followed by pDBU/ionomycin stimulation on day 5 measured after 4 hrs by anti-mouse IL17A-APC staining based flow cytometry (reference value: 1.44%). The class given is functional. More on the design: scale not given: the % may be the effect or the level left.

The test system of series [11] is Mus musculus. Kind of series: Immunosuppressive activity in MOG/CFA/Ptx-induced C57B/6 mouse model of experimental autoimmune encephalitis assessed as change in granulocytic myeloid-derived suppressor cell composition at 4 umol, ip administered on day 4 and 6 starting from 2 days post-disease induction and measured on day 7 post-last disease induction by immunostaining-based flow cytometry. The class given is functional, organism-based.

Series [12] relates to Mus musculus. Briefly: Immunosuppressive activity in MOG/CFA/Ptx-induced C57B/6 mouse model of experimental autoimmune encephalitis assessed as macrophage cells at 4 umol, ip administered on day 4 and 6 starting from 2 days post-disease induction and measured on day 7 post-last disease induction by immunostaining-based flow cytometry (reference value: 10.5%). It counts as functional.

For series [13], the system named is Mus musculus. Briefly: Immunosuppressive activity in MOG/CFA/Ptx-induced C57B/6 mouse model of experimental autoimmune encephalitis assessed as change in regulatory T cell composition at 4 umol, ip administered on day 4 and 6 starting from 2 days post-disease induction and measured on day 7 post-last disease induction by immunostaining-based flow cytometry. The class given is functional, organism-based.

Series [14] concerns Mus musculus. Kind of series: Immunosuppressive activity in MOG/CFA/Ptx-induced C57B/6 mouse model of experimental autoimmune encephalitis assessed as change in neutrophil composition at 4 umol, ip administered on day 4 and 6 starting from 2 days post-disease induction and measured on day 7 post-last disease induction by immunostaining-based flow cytometry. It counts as functional, organism-based.

A short description of series [15]: Immunosuppressive activity in OT2 mouse CD4-positive T cells derived OVA(323 to 339)-activated Th-differentiating media cultured Th1 cells assessed as reduction in pDBU/ionomycin-stimulated IFNgamma production at late stage by measuring INFgamma level at 100 nM treated last 2 days of 5 days differentiation followed by pDBU/ionomycin stimulation on day 5 measured after 4 hrs by anti-mouse IFNgamma-Pacific Blue/IL-2-APC staining based flow cytometry (reference value: 4.34%). The class given is functional. More on the design: scale not given: the % may be the effect or the level left.

Series [16] is described as follows: Cytotoxicity against OT2 mouse CD4-positive T cells assessed as cell viability at 100 nM measured after 48 hrs by live/dead viability staining based flow cytometry (reference value: 57.2%). The note with it: read-out: Activity.
Series [17] concerns Mus musculus. Kind of series: Immunosuppressive activity in MOG/CFA/Ptx-induced C57B/6 mouse model of experimental autoimmune encephalitis assessed as CD11b+ F4/80+ cells at 4 umol, ip administered on day 4 and 6 starting from 2 days post-disease induction and measured on day 7 post-last disease induction by immunostaining-based flow cytometry (reference value: 15%). It counts as functional.

Series [18] can be described thus: Cytotoxicity against OT2 mouse CD4-positive T cells assessed as cell viability at 10 uM measured after 48 hrs by live/dead viability staining based flow cytometry (reference value: 57.2%). The note with it: read-out: Activity.
Series [19] concerns Mus musculus. Briefly: Immunosuppressive activity in MOG/CFA/Ptx-induced C57B/6 mouse model of experimental autoimmune encephalitis assessed as live cells at 4 umol, ip administered on day 4 and 6 starting from 2 days post-disease induction and measured on day 7 post-last disease induction by live/dead staining-based flow cytometry (reference value: 87.5%). The class given is functional.

Series [20] deals with Mus musculus. Kind of series: Immunosuppressive activity in MOG/CFA/Ptx-induced C57B/6 mouse model of experimental autoimmune encephalitis assessed as inflammatory neutrophil cells at 4 umol, ip administered on day 4 and 6 starting from 2 days post-disease induction and measured on day 7 post-last disease induction by immunostaining-based flow cytometry (reference value: 35.2%). It counts as functional.

Series [21] has as its system Mus musculus. Kind of series: Immunosuppressive activity in MOG/CFA/Ptx-induced C57B/6 mouse model of experimental autoimmune encephalitis assessed as change in T cell composition at 4 umol, ip administered on day 4 and 6 starting from 2 days post-disease induction and measured on day 7 post-last disease induction by immunostaining-based flow cytometry. The class given is functional, organism-based.

Series [22] is described as follows: Toxicity in MOG/CFA/Ptx-induced C57B/6 mouse model of experimental autoimmune encephalitis assessed as adverse changes at 4 umol, ip administered on day 4, 6, and 8 starting from 2 days post-disease induction and measured up to 50 days. It counts as organism-based. The note with it: in vivo.
Series [23] in a line: Immunosuppressive activity in OT2 mouse CD4-positive T cells derived OVA(323 to 339)-activated Th-differentiating media cultured Th1 cells assessed as reduction in pDBU/ionomycin-stimulated IFNgamma production at late stage by measuring INFgamma level at 10 uM treated last 2 days of 5 days differentiation followed by pDBU/ionomycin stimulation on day 5 measured after 4 hrs by anti-mouse IFNgamma-Pacific Blue/IL-2-APC staining based flow cytometry (reference value: 4.34%). The class given is functional. Also on record: scale not given: the % may be the effect or the level left.

A short description of series [24]: Immunosuppressive activity in OT2 mouse CD4-positive T cells derived OVA(323 to 339)-activated Th-differentiating media cultured Th1 cells assessed as reduction in pDBU/ionomycin-stimulated IFNgamma production at early stage by measuring INFgamma level at 100 nM treated last 2 days of 5 days differentiation followed by pDBU/ionomycin stimulation on day 5 measured after 4 hrs by anti-mouse IFNgamma-Pacific Blue/IL-2-APC staining based flow cytometry (reference value: 57.3%). The class given is functional. More on the design: scale not given: the % may be the effect or the level left.

In series [25] the test system is Mus musculus. Kind of series: Immunosuppressive activity in MOG/CFA/Ptx-induced C57B/6 mouse model of experimental autoimmune encephalitis assessed as change in macrophage composition at 4 umol, ip administered on day 4 and 6 starting from 2 days post-disease induction and measured on day 7 post-last disease induction by immunostaining-based flow cytometry. The class given is functional, organism-based.

The nature of series [26]: Immunosuppressive activity in OT2 mouse CD4-positive T cells derived OVA(323 to 339)-activated Th-differentiating media cultured Th1 cells assessed as reduction in pDBU/ionomycin-stimulated IFNgamma production at early stage by measuring INFgamma level at 10 uM treated last 2 days of 5 days differentiation followed by pDBU/ionomycin stimulation on day 5 measured after 4 hrs by anti-mouse IFNgamma-Pacific Blue/IL-2-APC staining based flow cytometry (reference value: 57.3%). The class given is functional. More on the design: scale not given: the % may be the effect or the level left.

The species named for series [27] is Mus musculus. Kind of series: Immunosuppressive activity in OT2 mouse CD4-positive T cells derived OVA(323 to 339)-activated Th-differentiating media cultured Th1 cells assessed as reduction in pDBU/ionomycin-stimulated IFNgamma production treated last 2 days of 5 days differentiation followed by pDBU/ionomycin stimulation on day 5 measured after 4 hrs by anti-mouse IFNgamma-Pacific Blue/IL-2-APC staining based flow cytometry. The class given is functional.

Active and inactive are the calls of the source. The calls are words filed in the database; no cut-off is given here.

`C=C1CC[C@H]2[C@]3(C)C[C@@H](C=C(C)C)O[C@H]3CC[C@]2(C)[C@@H]1Cc1ccccc1`: the outcome in the series filed under Mus musculus [1] and in the series listed under Mus musculus [2] was Active.
Regarding `CC[C@@H]1C[C@@]2(C)[C@@H]3CCC[C@H](Cc4c(O)c(C)c(C)oc4=O)[C@@]3(C)CC[C@@H]2O1`, the outcome in the series listed under Mus musculus [1] and in the series filed under Mus musculus [2] was Active.
As for `CC[C@@H]1C[C@@]2(C)[C@@H]3CCC[C@@H](Cc4c(O)c(C)c(C)oc4=O)[C@@]3(C)CC[C@@H]2O1`, the outcome in the series listed under Mus musculus [1] and in the series filed under Mus musculus [2] was Active.
`CC(C)=CC1Cc2c(ccc3c(Cc4c(O)c(C)c(C)oc4=O)cccc23)O1` (stereo not given): the result in the series filed under Mus musculus [1] and in the series listed under Mus musculus [2] was Active.
As for `Cc1oc(=O)c(C[C@@H]2CCC[C@H]3CCCC[C@@]32C)c(O)c1C`, the result in the series on Mus musculus [3], in the series on Mus musculus [8], in the series with Mus musculus [11], in the series on Mus musculus [13], in the series with Mus musculus [14] and in the series on Mus musculus [21] was inactive. In addition, the outcome in the series with Mus musculus [25] was inactive. Besides, the viability at 48 h, 0.1 µM in series [4] was determined as 42.6%; in series [16] it was 60.6%. Besides, in the series on Mus musculus [5], the Time is 15 days. In addition, the Activity was 1.33% in [6]; 2.41% with Mus musculus [7]; 2.01% in series [10]; 4% in the series on Mus musculus [12]; 1.03% in [15]; 11% in the series on Mus musculus [17]. Besides, the Activity with Mus musculus [19] is reported as 88.8%; in the series on Mus musculus [20], 74.7%; in series [22], “Non-Toxic”; in [23], 0%; in series [24], 18.7%; in series [26] it was 0.47%. The figures for the viability at 48 h, 10 µM in [9] and in [18] were 8.85% and 41.5%, respectively.
In the case of `C=C1CC[C@H]2[C@]3(C)C[C@@H](C=C(C)C)O[C@H]3CC[C@]2(C)[C@@H]1Cc1c(O)c(C)c(C)oc1=O` [SUBGLUTINOL A], the viability at 48 h, 0.1 µM came out at 14.5% in [4] and 46% in [16]. Also, the Activity in [6] stood at 0.017%; in series [10] it was 0.064%; in [15], 0%; in [23] it was 0%; in series [24], 0.84%; in [26], 1.54%. In addition, the Activity result in the series listed under Mus musculus [27] was “Dose-dependent effect”. For the same compound, the results for the viability at 48 h, 10 µM in series [9] and in series [18] were 7.19% and 24.4%, respectively.
Take `Cc1oc(=O)c(C[C@H]2CCC[C@H]3CCCC[C@@]32C)c(O)c1C`: the outcome in the series filed under Mus musculus [1] and in the series filed under Mus musculus [2] was Active.
